Values joined by “and” are separate entries in the source; they are usually repeats but may differ in a detail not shown here. Equal values may be shown once. Read-outs that look alike come from different tables or passages of the source.
Experiments:
SK-BR-3 cells = experiment: In vitro cytotoxicity, SRB assay, 72 h dose-response; type: cell-based; conditions: Homo sapiens, SK-BR-3, 72 h, HER2+; 72 h; read-out: IC50
HCC-1954 cells = experiment: as above; type: cell-based; conditions: Homo sapiens, HCC1954, 72 h, HER2+; 72 h; read-out: IC50
Description: (§1) Nature Protocols, 1, 1112-1 116.

MCF-7 cells = experiment: as above; type: cell-based; conditions: Homo sapiens, MCF7, 72 h, HER2−; 72 h; read-out: IC50
Description: as §1

MDA-MB-231 cells = experiment: as above; type: cell-based; conditions: Homo sapiens, MDA-MB-231, 72 h, HER2−; 72 h; read-out: IC50
Description: as §1

[1] = system: HCC-1954, SK-BR-3, MDA-MB-231 and MCF-7 cells; experiment: In vitro cytotoxicity, whole breast cancer cell panel
Description: (§2) All tumor cell lines used in this study were obtained from the American Type Culture Collection (ATCC), unless otherwise indicated; BT-474 (ATCC HTB-20, Breast Ductal Carcinoma), SK-BR-3 (ATCC HTB-30, Breast Adenocarcinoma) and HCC-1954 (ATCC CRL-2338, Breast Ductal Carcinoma), all HER2+; MDA-MB-231 (ATCC HTB-26, Breast Adenocarcinoma) and MCF-7 (ATCC HTB-22 Breast Adenocarcinoma, pleural effusion), all HER2-; SK-OV-3 (ATCC HTB-77, Ovary Adenocarcinoma), HER2+; NB-4 (Acute Promyelocytic Leukemia, APL, CD13+, M. Lanotte et al. (1991) NB4, a maturation inducible cell line with t(15;17) marker isolated from a human acute promyelocytic leukemia (M3). Blood 77, 1080-1086), (CD13+) and U937 (ATCC CRL-1 593.2, Histiocytic Lymphoma, CD13+ and CD4+); Raji (ATCC CCL-86, Burkitt's Lymphoma) (CD13−, CD20+, CD5−, and CD4−); RPMI-8226 (ATCC CRM-CCL-155, Multiple Myeloma) (CD13−, CD20−, CD5− and CD4−); Karpas-299 (DSMZ ACC-31, Non-Hodgkin's Lymphoma) (CD20−, CD5+, and CD4+); MOLT-4 (ATCC CRL-1 582, Acute Lymphoblastic Leukemia, CD5+). In addition, the two Raji cell (ATCC CCL-86, Burkitt's Lymphoma) clones used in this study Raji-clone #10 (high CD5 expression) and Raji-clone18 (null CD5 expression), were provided by Dr. Juan M. Zapata (Instituto de Investigaciones Biomedicas “Alberto Sols”, CSIC-UAM, Madrid, Spain). Cells were maintained at 37° C., 5% CO 2 and 95% humidity in Dulbecco's Modified Eagle's Medium (DMEM) (for MCF and MDA-MB-231 cells), RPMI-1640 (for SK-BR-3, HCC-1954, NB-4, U937, Raji, RPMI-8226, Karpas-299, MOLT-4, Raji-clone #10 and Raji-clone #18 cells), RPMI-1640+1% ITS (for BT-474 cells) or McCOyS (for SK-OV-3 cells), all media supplemented with 10% Fetal Calf Serum (FCS) and 100 units/mL penicillin and streptomycin.
For adherent cells: A colorimetric assay using sulforhodamine B (SRB) was adapted for quantitative measurement of cell growth and cytotoxicity, as described in V. Vichai and K. Kirtikara (2006) Sulforhodamine B colorimetric assay for cytotoxicity screening. Nature Protocols, 1, 1112-1 116. Briefly, cells were seeded in 96-well microtiter plates and allowed to stand for 24 hours in drug-free medium before treatment with vehicle alone or the indicated compounds for 72 hours. For quantification, cells were washed twice with phosphate buffered saline (PBS), fixed for 15 min in 1% glutaraldehyde solution, rinsed twice with PBS, stained in 0.4% SRB-1% acetic acid solution for 30 min, rinsed several times with 1% acetic acid solution and air-dried. SRB was then extracted in 10 mM trizma base solution and the optical density measured at 490 nm in a microplate spectrophotometer. Cell survival was expressed as percentage of control, untreated cell survival.
(§3) The IC50 value refers to the concentration of compound inducing a 50% of cell death as compared to the control cell survival.
Standard dose-response (DR) curves for 72 hours were performed.

[2] = system: Raji, RPMI-8226 and Karpas-299 cells; experiment: In vitro cytotoxicity, whole CD20 cell panel
Description: as §2
For suspension cells: A standard metabolic assay using MTT (3-(4,5-Dimethylthiazol-2-yl)-2,5-diphenyltetrazolium bromide) was adapted for quantitative measurement of cell growth and cytotoxicity, as described in T. Mosmann (1983) Rapid colorimetric assay for cellular growth and survival: Application to proliferation and cytotoxicity assays. J. Immunol. Meth., 65, 55-63. Briefly, MTT solution was added to the cell cultures at a final concentration of 0.5 mg/mL, and incubated for 1 to 4 hours at 37° C. until formazan crystals are formed. Culture medium is carefully removed from the cell cultures and formazan crystals resuspended in 100 μl DMSO. After mixing to assure solubilization, the quantity of formazan (presumably directly proportional to the number of viable cells) is measured by recording changes in absorbance at 570 nm using a plate reading spectrophotometer. Cell survival was expressed as percentage of control, untreated cell survival.
as §3
The in vitro cytotoxic activity of ADC12 along with the parent cytotoxic Compounds 1, 4, and 40, was evaluated was assayed against different human cancer cell lines expressing or not the CD20 antigen, including Raji (CD20 positive cells); RPMI-8226 and Karpas-299 (CD20 negative cells). Standard dose-response (DR) curves for 72 hours were performed.

[3] = Homo sapiens, read-out: IC50 values along the different cell lines tested (range), four breast cell lines
[4] = Homo sapiens, read-out: mean IC50 value across the whole cell panel, four breast cell lines
[5] = read-out: mean IC50 value across the whole cell panel, four breast cell lines

Molecule: C/C=C\C[C@@H](C/C=C\NC(=O)[C@@H](NC(=O)\C=C/C=C\C(C)=C\[C@H](C)[C@@H]1CC=C(OC)C(=O)O1)C(C)(C)C)OC(=O)NCCCNC(=O)CCCCCN1C(=O)C=CC1=O [Compound 5]
- IC50 (SK-BR-3 cells): 0.019 µg/mL and 23.2 nM
- IC50 (HCC-1954 cells): 0.0195 µg/mL and 23.8 nM
- IC50 (MCF-7 cells): 0.0775 µg/mL and 94.1 nM
- IC50 (MDA-MB-231 cells): 0.057 µg/mL and 69.4 nM
- IC50 [1, 3]: 0.019 µg/mL to 0.077 µg/mL and 23.2 nM to 94.1 nM
- IC50 [1, 4]: 0.0433 µg/mL and 52.6 nM

Molecule: C/C=C\C[C@@H](C/C=C\NC(=O)[C@@H](NC(=O)\C=C/C=C\C(C)=C\[C@H](C)[C@@H]1CC=C(OC)C(=O)O1)C(C)(C)C)OC(=O)NCCCN [Compound 8]
- IC50 (SK-BR-3 cells): 0.0034 µg/mL and 5.41 nM
- IC50 (HCC-1954 cells): 0.0054 µg/mL and 8.59 nM
- IC50 (MCF-7 cells): 0.00675 µg/mL and 10.7 nM
- IC50 (MDA-MB-231 cells): 0.00655 µg/mL and 10.4 nM
- IC50 [1, 3]: 0.0034 µg/mL to 0.00675 µg/mL and 2.94 nM to 15.1 nM
- IC50 [1, 4]: 0.00553 µg/mL and 8.79 nM
- mean IC50 value across the whole cell panel ([1]; four breast cell lines): 5.45 ng/mL
- IC50 [1, 5]: 8.67 nM

Molecule: COC1=CC[C@@H]([C@@H](C)/C=C(C)/C=C\C=C/C(=O)N[C@H](C(=O)N/C=C\C[C@H](C/C=C(\C)Cl)OC(=O)NCCCS)C(C)(C)C)OC1=O [Compound 15]
- IC50 (SK-BR-3 cells): 0.00048 µg/mL and 0.706 nM
- IC50 (HCC-1954 cells): 0.000675 µg/mL and 0.994 nM
- IC50 (MCF-7 cells): 0.00145 µg/mL and 2.14 nM
- IC50 (MDA-MB-231 cells): 0.00149 µg/mL and 2.19 nM
- IC50 [1, 3]: 0.00048 µg/mL to 0.00149 µg/mL and 0.706 nM to 2.19 nM
- IC50 [1, 4]: 0.00103 µg/mL and 1.51 nM
- decrease of cytotoxic activity as compared to Compound 40 ([1]; thiol containing tail): about 8 fold

Molecule: C/C=C\C[C@@H](C/C=C\NC(=O)[C@@H](NC(=O)\C=C/C=C\C(C)=C\[C@H](C)[C@@H]1CC=C(OC)C(=O)O1)C(C)(C)C)OC(=O)NCCCNC(=O)CCS [Compound 18]
- IC50 (SK-BR-3 cells): 0.0044 µg/mL and 6.14 nM
- IC50 (HCC-1954 cells): 0.00805 µg/mL and 11.2 nM
- IC50 (MCF-7 cells): 0.0185 µg/mL and 25.8 nM
- IC50 (MDA-MB-231 cells): 0.0115 µg/mL and 16 nM
- IC50 [1, 3]: 0.0044 µg/mL to 0.0185 µg/mL and 6.14 nM to 25.8 nM
- IC50 [1, 4]: 0.0106 µg/mL and 14.8 nM

Molecule: CC#CC[C@@H](C/C=C\NC(=O)[C@@H](NC(=O)\C=C/C=C\C(C)=C\[C@H](C)[C@@H]1CC=C(OC)C(=O)O1)C(C)(C)C)OC(=O)NCCCN [Compound 24]
- IC50 (SK-BR-3 cells): 0.009 µg/mL and 14.4 nM
- IC50 (HCC-1954 cells): 0.018 µg/mL and 28.7 nM
- IC50 (MCF-7 cells): 0.0165 µg/mL and 26.3 nM
- IC50 (MDA-MB-231 cells): 0.0175 µg/mL and 27.9 nM
- decrease of cytotoxic activity as compared to Compound 41 ([1]; 1,3-propylenediamine group): about 2 logs
- IC50 ([1]; Homo sapiens, read-out: IC50 values across the different cell lines tested (range), four breast cell lines): 9 to 18 ng/mL
- IC50 [1, 3]: 14 nM to 28 nM and 0.009 µg/mL to 0.018 µg/mL
- IC50 [1, 4]: 0.015 µg/mL and 24 nM
- mean IC50 value across the whole cell panel ([1]; four breast cell lines): 24 nM

Molecule: CC#CC[C@@H](C/C=C\NC(=O)[C@@H](NC(=O)\C=C/C=C\C(C)=C\[C@H](C)[C@@H]1CC=C(OC)C(=O)O1)C(C)(C)C)OC(=O)NCCCNC(=O)CCCCCN1C(=O)C=CC1=O [Compound 25]
- IC50 (SK-BR-3 cells): 0.0255 µg/mL and 31.1 nM
- IC50 (HCC-1954 cells): 0.044 µg/mL and 53.7 nM
- IC50 (MCF-7 cells): 0.053 µg/mL and 64.6 nM
- IC50 (MDA-MB-231 cells): > 0.1 µg/mL and > 122 nM
- IC50 [1, 3]: 0.025 µg/mL to 0.053 µg/mL and 31 nM to 65 nM
- IC50 [1, 4]: 41 ng/mL
- mean IC50 value across the whole cell panel ([1]; four breast cell lines): 49 nM

Molecule: CC#CC[C@@H](C/C=C\NC(=O)[C@@H](NC(=O)\C=C/C=C\C(C)=C\[C@H](C)[C@@H]1CC=C(OC)C(=O)O1)C(C)(C)C)OC(=O)NCCCNC(=O)CCS [Compound 27]
- IC50 (SK-BR-3 cells): 0.0105 µg/mL and 14.7 nM
- IC50 (HCC-1954 cells): 0.0165 µg/mL and 23.1 nM
- IC50 (MCF-7 cells): 0.039 µg/mL and 54.6 nM
- IC50 (MDA-MB-231 cells): 0.0345 µg/mL and 48.3 nM
- IC50 [1, 3]: 0.0105 µg/mL to 0.039 µg/mL and 15 nM to 55 nM
- IC50 [1, 4]: 0.025 µg/mL and 35 nM

Molecule: CC#CC[C@@H](C/C=C\NC(=O)[C@@H](NC(=O)\C=C/C=C\C(C)=C\[C@H](C)[C@@H]1CC=C(OC)C(=O)O1)C(C)(C)C)OC(N)=O [Compound 41]
- IC50 (SK-BR-3 cells): 0.00011 µg/mL and 0.193 nM
- IC50 (HCC-1954 cells): 0.000104 µg/mL and 0.183 nM
- IC50 (MCF-7 cells): 0.000265 µg/mL and 0.465 nM
- IC50 (MDA-MB-231 cells): 0.00018 µg/mL and 0.316 nM
- IC50 [1, 3]: 0.075 to 0.14 ng/mL
- IC50 [1, 4]: 0.00016 µg/mL and 0.29 nM
- IC50 [1, 5]: 0.19 nM

Molecule: Rituximab: anti-CD20 monoclonal antibody [reference compound]
- cytotoxic activity ([2]; 50 μg/mL): virtually inactive
- cytotoxic activity in DR curves ([2]; 5.0E+01 to 2.62E-05 μg/mL): rather inactive

From patent US12410148B2, “Antibody drug conjugates” (Pharma Mar, S.A., priority 2013, dated 2025)
